Results published in patent US12240844B2 (Voronoi, Inc., priority 2019, dated 2025).

Assays:
Type in all cases: biochemical
[1] = target: T1, human GST-DYRK1A (full length) (Homo sapiens, UniProt Q13627); experiment: GST-DYRK1A enzyme inhibition, ADP-Glo kinase assay; settings: read-out: DYRK1 IC50
T1 construct: purified human GST-DYRK1A (full length, Thermo scientifics) enzyme; GST; purchased Thermo scientifics
Procedure, shortened: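 ADP-Glo luminescence quantified kinase activity after a 1 h, 25° C reaction of 10 ng full-length GST-tagged human DYRK1A, substrate and 10 uM ATP in Tris-HCl buffer pH 7.4 with MgCl2, BSA and DTT. Triplicate IC50 values (nM) calculated relative to untreated solvent control.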

[2] = target: T2, human GST-CLK1 (129-end) (Homo sapiens, UniProt P49759); experiment: GST-CLK1 enzyme inhibition, ADP-Glo kinase assay; settings: ATP 10 uM
T2 construct: purified human GST-CLK1 (129-end, Signalchem) enzyme; GST; purchased Signalchem
Procedure, shortened: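 ADP formation was read by ADP-Glo luminescence after 1 h at 25° C with 3 ng human GST-CLK1 (129-end), substrate and 10 uM ATP in Tris pH 7.4 buffer containing MgCl2, BSA and DTT. Inhibition relative to untreated solvent control gave IC50 (nM), run in triplicate.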

[3] = target: LRRK2 (G2019S) (Homo sapiens, UniProt Q5S007, G2019S); experiment: LRRK2 G2019S enzyme inhibition, ADP-Glo kinase assay; design: purchased SignalChem L10-12GG
Method: In order to evaluate the inhibitory activity of the compounds according to the present invention on LRRK2, LRRK2 (G2019S), DYRK1, CLK1 and TTK kinases, the following experiment was performed.
Example compounds were reacted with the purified human LRRK2 G2019S (L10-12GG, SignalChem) enzyme to evaluate the enzyme inhibitory ability as follows. The reaction buffer was used as the composition of 40 mM Tris-HCl pH7.4, 20 mM MgCl2, 0.5 mg/ml BSA and 50 μM DTT, and the reaction of all test materials was performed on the reaction buffer. The compound was diluted with 10 mM DMSO stock in 12 steps by a serial dilution method, and the enzyme activity was measured at the final compound concentrations of 50, 10, 2, 0.4, 0.08, 0.016, 0.0032, 0.00064, 0.000128, 0.0000256, 0.00000512 and 0.000001024 μM. In the test, the human LRRK2 G2019S (16 ng) enzyme was reacted with the purified ATP (25 μM) and an enzyme substrate (0.2 μg) at 25° C. for 2 hours, and then the enzyme activity was identified using the in vitro ADP-Glo™ kinase assay (promega). The enzyme activity reaction liquid, an ADP-Glo reaction liquid and an enzyme potency detection solution were reacted in a ratio of 2:2:1, and the degree of inhibition of enzyme activity was measured by Luminescence. The degree of inhibition of enzyme activity according to the treatment concentrations of the respective compounds was calculated based on the fluorescence of the enzyme activity of a solvent control group that was not treated with the compound, where the concentration of each compound to inhibit enzyme activity inhibition by 50% was determined as an IC50 (nM) value and obtained using Prism (Version 5.01, GraphPad) software.
In the table below, the following designations were used for the evaluation of enzyme inhibitory ability.

Sequence of LRRK2 (G2019S) (Q5S007 970-2527 G2019S limits assumed): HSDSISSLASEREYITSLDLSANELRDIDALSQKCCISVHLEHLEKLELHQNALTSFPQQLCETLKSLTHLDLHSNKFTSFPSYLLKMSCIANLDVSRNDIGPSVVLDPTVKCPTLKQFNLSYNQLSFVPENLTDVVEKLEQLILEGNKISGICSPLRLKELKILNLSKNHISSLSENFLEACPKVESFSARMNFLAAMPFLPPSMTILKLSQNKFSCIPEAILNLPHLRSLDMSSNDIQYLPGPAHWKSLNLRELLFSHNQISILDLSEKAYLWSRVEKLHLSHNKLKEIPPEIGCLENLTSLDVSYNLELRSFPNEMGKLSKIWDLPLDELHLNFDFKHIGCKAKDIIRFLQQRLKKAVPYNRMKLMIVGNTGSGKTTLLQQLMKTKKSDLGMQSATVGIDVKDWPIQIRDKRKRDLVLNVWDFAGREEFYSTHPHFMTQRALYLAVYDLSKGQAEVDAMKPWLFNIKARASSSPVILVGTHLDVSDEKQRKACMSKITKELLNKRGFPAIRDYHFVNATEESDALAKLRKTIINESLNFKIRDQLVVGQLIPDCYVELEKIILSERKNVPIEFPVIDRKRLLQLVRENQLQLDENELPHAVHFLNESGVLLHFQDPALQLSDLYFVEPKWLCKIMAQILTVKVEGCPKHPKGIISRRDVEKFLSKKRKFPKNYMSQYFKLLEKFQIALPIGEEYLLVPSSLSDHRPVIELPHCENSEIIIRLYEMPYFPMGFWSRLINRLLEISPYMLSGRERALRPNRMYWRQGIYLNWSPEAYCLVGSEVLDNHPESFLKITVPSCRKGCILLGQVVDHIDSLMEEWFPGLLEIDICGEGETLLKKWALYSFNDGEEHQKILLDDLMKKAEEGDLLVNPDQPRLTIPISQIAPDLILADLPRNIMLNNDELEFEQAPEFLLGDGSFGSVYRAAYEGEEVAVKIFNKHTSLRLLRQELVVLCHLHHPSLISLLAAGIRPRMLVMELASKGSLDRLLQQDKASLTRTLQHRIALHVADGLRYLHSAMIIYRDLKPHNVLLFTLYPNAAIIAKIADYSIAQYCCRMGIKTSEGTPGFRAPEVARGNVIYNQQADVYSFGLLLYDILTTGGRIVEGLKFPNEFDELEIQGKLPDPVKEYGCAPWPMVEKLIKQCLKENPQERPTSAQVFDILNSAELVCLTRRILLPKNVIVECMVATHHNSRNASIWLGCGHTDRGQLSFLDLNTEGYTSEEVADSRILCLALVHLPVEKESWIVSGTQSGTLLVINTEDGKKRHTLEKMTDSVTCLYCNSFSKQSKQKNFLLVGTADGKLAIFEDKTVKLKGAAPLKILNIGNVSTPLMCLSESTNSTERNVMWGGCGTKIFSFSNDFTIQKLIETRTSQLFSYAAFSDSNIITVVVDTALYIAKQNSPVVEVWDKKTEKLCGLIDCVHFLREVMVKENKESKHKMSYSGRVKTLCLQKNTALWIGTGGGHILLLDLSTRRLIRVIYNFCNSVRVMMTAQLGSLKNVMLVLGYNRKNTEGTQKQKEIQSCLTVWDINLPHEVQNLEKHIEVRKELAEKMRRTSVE
T2 sequence (P49759 129-484 limits assumed): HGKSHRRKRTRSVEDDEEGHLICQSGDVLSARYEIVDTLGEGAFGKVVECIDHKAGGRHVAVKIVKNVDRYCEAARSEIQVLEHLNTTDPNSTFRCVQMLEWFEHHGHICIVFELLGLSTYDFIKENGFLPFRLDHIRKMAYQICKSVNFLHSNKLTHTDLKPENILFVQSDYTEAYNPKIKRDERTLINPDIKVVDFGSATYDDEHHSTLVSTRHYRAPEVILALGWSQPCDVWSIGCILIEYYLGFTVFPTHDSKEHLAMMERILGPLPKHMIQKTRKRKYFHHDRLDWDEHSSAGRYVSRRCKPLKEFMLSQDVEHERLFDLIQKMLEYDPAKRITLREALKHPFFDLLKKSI

| SMILES | IC50 [1] [nM] | IC50 [2] [nM] | IC50 [3] [nM] |
| --- | --- | --- | --- |
| COc1cc(S(=O)(=O)N2CCC(N3CCOCC3)CC2)ccc1Nc1cc(NC(C)C)c2c(Cl)c[nH]c2n1 [Example 75, 3-chloro-N^4-isopropyl-N^6-(2-methoxy-4-((morpholinopiperidin-1-yl)sulfonyl)phenyl)-1H-pyrrolo[2,3-b]pyridine-4,6-diamine] | 301 to 1000 | 301 to 1000 | < 100 |
| O=C(c1ccc(Nc2cc(NC3CC3)c3cc[nH]c3n2)c2c1OCCO2)N1CCOCC1 [Example 7, (8-((4-(cyclopropylamino)-1H-pyrrolo[2,3-b]pyridin-6-yl)amino)-2,3-dihydrobenzo [b] [1,4]dioxin-5-yl)(morpholino) methanone] | 301 to 1000 | 301 to 1000 | < 100 |
| CCNc1cc(Nc2ccc(C(=O)N3CCOCC3)c3c2OCCO3)nc2[nH]cc(Cl)c12 [Example 57, (8-((3-chloro-4-(ethylamino)-1H-pyrrolo[2,3-b]pyridin-6-yl)amino)-2,3-dihydrobenzo[b] [1,4]dioxin-5-yl)(morpholino) methanone] | 301 to 1000 | 301 to 1000 | < 100 |
| COc1cc(S(=O)(=O)N2CCOCC2)ccc1Nc1cc(NCC(C)C)c2cc[nH]c2n1 [Example 14, N^4-isobutyl-N^6-(2-methoxy-4-(morpholinosulfonyl)phenyl)-1H-pyrrolo[2,3-b]pyridine-4,6-diamine] | 301 to 1000 | 301 to 1000 | 301 to 1000 |
| CS(=O)(=O)CCNc1cc(Nc2ccc(C(=O)N3CCOCC3)c3c2OCCO3)nc2[nH]ccc12 [Example 9, (8-((4-((2-(methylsulfonyl)ethyl)amino)-1H-pyrrolo[2,3-b]pyridin-6-yl)amino)-2,3-dihydrobenzo[b] [1,4]dioxin-5-yl)(morpholino) methanone] | 301 to 1000 | 301 to 1000 | < 100 |
| CC(C)Nc1cc(Nc2ccc(C(=O)N3CCOCC3)c3c2OCCO3)nc2[nH]ccc12 [Example 5, (8-((4-(isopropylamino)-1H-pyrrolo[2,3-b]pyridin-6-yl)amino)-2,3-dihydrobenzo[b] [1,4]dioxin-5-yl)(morpholino) methanone] | 301 to 1000 | 301 to 1000 | < 100 |
| COc1cc(S(=O)(=O)N2CCC(N3CCOCC3)CC2)ccc1Nc1cc(NCCS(C)(=O)=O)c2cc[nH]c2n1 [Example 24, N^6-(2-methoxy-4-((4-morpholinopiperidin-1-yl)sulfonyl)phenyl)-N^4-(2-(methylsulfonyl)ethyl)-1H-pyrrolo[2,3-b]pyridine-4,6-diamine] | 301 to 1000 | 301 to 1000 | < 100 |
| CCNc1cc(Nc2ccc(C(=O)N3OCC[C@H]3c3cc(F)cc(F)c3)c3c2OCC3)nc2[nH]cc(C(F)(F)F)c12 [Example 246, (S)-(3-(3,5-difluorophenyl)isoxazolidin-2-yl)(7-((4-(ethylamino)-3-(trifluoromethyl)-1H-pyrrolo[2,3-b]pyridin-6-yl)amino)-2,3-dihydrobenzofuran-4-yl)methanone] | 301 to 1000 | 301 to 1000 | 301 to 1000 |
| CCNc1cc(Nc2ccc(S(=O)(=O)N3CCC(N4CCOCC4)CC3)cc2OC)nc2[nH]ccc12 [Example 19, N^4-ethyl-N^6-(2-methoxy-4-((4-morpholinopiperidin-1-yl)sulfonyl)phenyl)-1H-pyrrolo[2,3-b]pyridine-4,6-diamine] | 301 to 1000 | 301 to 1000 | < 100 |
| COc1cc(S(C)(=O)=O)ccc1Nc1cc(NC2CCCCC2)c2cc[nH]c2n1 [Example 30, N^4-cyclohexyl-N^6-(2-methoxy-4-(methylsulfonyl)phenyl)-1H-pyrrolo[2,3-b]pyridine-4,6-diamine] | 301 to 1000 | 301 to 1000 | 301 to 1000 |
| COc1cc(S(C)(=O)=O)ccc1Nc1cc(NC2CC2)c2cc[nH]c2n1 [Example 1, N^4-cyclopropyl-N^6-(2-methoxy-4-(methylsulfonyl)phenyl)-1H-pyrrolo[2,3-b]pyridine-4,6-diamine] | 301 to 1000 | 301 to 1000 | 301 to 1000 |
| COc1cc(S(=O)(=O)N2CCOCC2)ccc1Nc1cc(NC(C)C)c2cc[nH]c2n1 [Example 13, N^4-isopropyl-N^6-(2-methoxy-4-(morpholinosulfonyl)phenyl)-1H-pyrrolo[2,3-b]pyridine-4,6-diamine] | 301 to 1000 | 301 to 1000 | 301 to 1000 |
| CCNc1cc(Nc2ccc(C(=O)N3OCC[C@@H]3c3cc(F)cc(F)c3)c3c2OCC3)nc2[nH]cc(C(F)(F)F)c12 [Example 245, (R)-(3-(3,5-difluorophenyl)isoxazolidin-2-yl)(7-((4-(ethylamino)-3-(trifluoromethyl)-1H-pyrrolo[2,3-b]pyridin-6-yl)amino)-2,3-dihydrobenzofuran-4-yl)methanone] | 301 to 1000 | 301 to 1000 | 301 to 1000 |

Results, then the compound that gave them:

| IC50 [1] [nM] | IC50 [2] [nM] | IC50 [3] [nM] | SMILES |
| --- | --- | --- | --- |
| < 100 | 101 to 300 | 301 to 1000 | CCNc1cc(Nc2ccc(C(=O)N3C[C@@H](C)O[C@@H](C)C3)c3c2OCC3)nc2[nH]cc(C(F)(F)F)c12 [Example 258, ((2S,6R)-2,6-dimethylmorpholino) (7-((4-(ethylamino)-3-(trifluoromethyl)-1H-pyrrolo[2,3-b]pyridin-6-yl)amino)-2,3-dihydrobenzofuran-4-yl)methanone] |
| 301 to 1000 | 301 to 1000 | 301 to 1000 | COc1cc(S(=O)(=O)N2CCOCC2)ccc1Nc1cc(NC(C)C)c2c(Cl)c[nH]c2n1 [Example 67, 3-chloro-N^4-isopropyl-N^6-(2-methoxy-4-(morpholinosulfonyl)phenyl)-1H-pyrrolo[2,3-b]pyridine-4,6-diamine] |
| 301 to 1000 | 301 to 1000 | < 100 | CC(C)CNc1cc(Nc2ccc(C(=O)N3CCOCC3)c3c2OCCO3)nc2[nH]ccc12 [Example 6, (8-((4-(isobutylamino)-1H-pyrrolo[2,3-b]pyridin-6-yl)amino)-2,3-dihydrobenzo [b] [1,4]dioxin-5-yl)(morpholino) methanone] |
| 101 to 300 | < 100 | < 100 | C=CCNc1cc(Nc2ccc(C(=O)N3CC[C@H](N4CCOCC4)C3)c3c2OCC3)nc2[nH]cc(C(F)(F)F)c12 [Example 262, (S)-(7-((4-(allylamino)-3-(trifluoromethyl)-1H-pyrrolo[2,3-b]pyridin-6-yl)amino)-2,3-dihydrobenzofuran-4-yl)(3-morpholinopyrrolidin-1-yl)methanone] |
| 101 to 300 | < 100 | < 100 | CCNc1cc(Nc2ccc(C(=O)N3CCN(C4CCCC4)CC3)c3c2OCC3)nc2[nH]cc(C(F)(F)F)c12 [Example 251, (4-cyclopentylpipe razin-1-yl)(7-((4-(ethylamino)-3-(trifluoromethyl)-1H-pyrrolo[2,3-b]pyridin-6-yl)amino)-2,3-dihydrobenzofuran-4-yl)methanone] |
| < 100 | < 100 | < 100 | CCNc1cc(Nc2ccc(C(=O)N3CCO[C@@H](C)C3)c3c2OCC3)nc2[nH]cc(C(F)(F)F)c12 [Example 259, (S)-(7-((4-(ethylamino)-3-(trifluoromethyl)-1H-pyrrolo[2,3-b]pyridin-6-yl)amino)-2,3-dihydrobenzofuran-4-yl)(2-methylmorpholino) methanone] |
| < 100 | < 100 | < 100 | CCNc1cc(Nc2ccc(C(=O)N3CCN(C(C)C)CC3)c3c2OCC3)nc2[nH]cc(C(F)(F)F)c12 [Example 254, (7-((4-(ethylamino)-3-(trifluoromethyl)-1H-pyrrolo[2,3-b]pyridin-6-yl)amino)-2,3-dihydrobenzofuran-4-yl)(4-isopropylpiperazin-1-yl)methanone] |
| 101 to 300 | < 100 | < 100 | C=CCNc1cc(Nc2ccc(C(=O)N3CC[C@@H](N4CCOCC4)C3)c3c2OCC3)nc2[nH]cc(C(F)(F)F)c12 [Example 261, (R)-(7-((4-(allylamino)-3-(trifluoromethyl)-1H-pyrrolo[2,3-b]pyridin-6-yl)amino)-2,3-dihydrobenzofuran-4-yl)(3-morpholinopyrrolidin-1-yl)methanone] |
